In US10160762B2, “6-alkyl dihydropyrazolopyrimidinone compounds as PDE2 inhibitors” (Merck Sharp & Dohme Corp., priority 2015, dated 2018):
Where two headings read alike, the source gives them in different places. Values belong to the compound of their own block, whether it stands above or below them.

Target: T1, Rhesus PDE2A3 (Macaca mulatta, UniProt B3VTJ2)
T1 construct: made in house; host or cells: AD293 cells, transient transfection; supernatant of sonicated lysate
T1 sequence (B3VTJ2 1-941): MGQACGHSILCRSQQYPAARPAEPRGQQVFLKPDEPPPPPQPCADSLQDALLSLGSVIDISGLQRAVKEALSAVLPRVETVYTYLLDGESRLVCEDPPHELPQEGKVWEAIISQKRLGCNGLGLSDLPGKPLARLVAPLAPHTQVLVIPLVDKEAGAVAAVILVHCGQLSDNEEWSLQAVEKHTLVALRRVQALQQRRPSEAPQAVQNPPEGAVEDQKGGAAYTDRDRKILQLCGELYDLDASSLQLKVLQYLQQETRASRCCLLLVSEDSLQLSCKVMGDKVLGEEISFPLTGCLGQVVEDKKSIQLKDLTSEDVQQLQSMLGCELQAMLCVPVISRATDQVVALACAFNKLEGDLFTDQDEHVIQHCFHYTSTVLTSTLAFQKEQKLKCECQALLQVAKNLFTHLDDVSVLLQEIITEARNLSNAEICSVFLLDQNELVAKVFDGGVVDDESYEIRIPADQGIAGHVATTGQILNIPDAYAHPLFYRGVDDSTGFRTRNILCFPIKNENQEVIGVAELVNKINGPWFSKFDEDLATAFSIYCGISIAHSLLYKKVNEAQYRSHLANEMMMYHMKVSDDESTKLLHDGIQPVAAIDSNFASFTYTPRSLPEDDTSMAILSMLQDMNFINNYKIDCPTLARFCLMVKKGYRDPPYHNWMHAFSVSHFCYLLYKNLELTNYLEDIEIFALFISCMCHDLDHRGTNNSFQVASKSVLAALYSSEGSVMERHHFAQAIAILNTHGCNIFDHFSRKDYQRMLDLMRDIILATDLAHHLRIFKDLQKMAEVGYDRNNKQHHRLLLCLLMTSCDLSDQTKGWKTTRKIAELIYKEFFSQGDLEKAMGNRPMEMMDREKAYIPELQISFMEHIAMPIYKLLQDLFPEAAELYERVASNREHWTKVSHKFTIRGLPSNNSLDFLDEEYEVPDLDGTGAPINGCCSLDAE
Assay: PDE2 fluorescence polarization (IMAP FP) inhibition assay, rhesus PDE2A3
Type: biochemical, rhesus macaque
Protocol: The activity of the compounds in accordance with the present invention as PDE2 inhibitors may be readily determined using a fluorescence polarization (FP) methodology (Huang, W., et al., J. Biomol Screen, 2002, 7: 215).
The PDE2 inhibitory activity of the compounds of the present invention was determined in accordance with the following experimental method. Rhesus PDE2A3 was amplified from rhesus macaque brain cDNA (Biochain Institute, Hayward, Calif.) using primers based on human PDE2A sequence (accession NM_002599.3) where the forward primer containing a Kozak consensus was 5′-[…]-3′ and the reverse primer was 5′-[…]-3′. Amplification with Easy-A High-Fidelity PCR cloning enzyme (Stratagene, La Jolla, Calif.) was 95° C. for 2 minutes followed by thirty three cycles of 95° C. for 40 seconds, 52° C. for 30 seconds, and 72° C. for 2 minutes 48 seconds. Final extension was 72° C. for 7 minutes. The PCR product was TA cloned into pcDNA3.3-TOPO (Invitrogen, Carlsbad, Calif.) according to standard protocol. A consensus sequence was developed from multiple clones and then deposited into GenBank (EU812167). AD293 cells (Stratagene, La Jolla, Calif.) with 70-80% confluency were transiently transfected with rhesus PDE2A3/pcDNA3.3-TOPO using Lipofectamine 2000 according to manufacturer specifications (Invitrogen, Carlsbad, Calif.). Cells were harvested 48 hours post-transfection and lysed by sonication (setting 3, 10×5 sec pulses) in a buffer containing 20 mM HEPES pH 7.4, 1 mM EDTA and Complete Protease Inhibitor Cocktail Tablets (Roche, Indianapolis, Ind.). Lysate was collected by centrifugation at 75,000×g for 20 minutes at 4° C. and supernatant utilized for evaluation of PDE2 activity. The fluorescence polarization assay for cyclic nucleotide phosphodiesterases was performed using an IMAP® FP kit supplied by Molecular Devices, Sunnyvale, Calif. (product #R8139). […] Assays were performed at room temperature in 384-well microtiter plates with an incubation volume of 20.2 μL. Solutions of test compounds were prepared in DMSO and serially diluted with DMSO to yield 8 μL of each of 10 solutions differing by 3-fold in concentration, at 32 serial dilutions per plate. […] 0% of inhibition is determined by using DMSO (1% final concentrations).
A Labcyte Echo 555 (Labcyte, Sunnyvale, Calif.) is used to dispense 200 nL from each well of the titration plate to the 384 well assay plate. Ten microliters of a solution of enzyme (1/2000 final dilution from aliquots; sufficient to produce 20% substrate conversion) was added to the assay plate. Next 10 uL of a separate solution of the substrate FAM-labeled cAMP (50 nM final concentration product # R7506 from Molecular Devices) and the activator cGMP (1 uM final concentration), prepared in the assay buffer (10 mM Tris HCl, pH 7.2, 10 mM MgCl2, 0.05% NaN3 0.01% Tween-20, and 1 mM DTT) was added to the assay plate and shaken to mix. The reaction is allowed to proceed at room temperature for 60 minutes. A binding solution is then made from the kit components, comprised of 80% Solution A, 20% Solution B and binding reagent at a volume of 1/600 the total binding solution. The enzymatic reaction is stopped by addition of 60 μL of the binding solution to each well of the assay plates and the plates are sealed and shaken for 30 seconds. The plate was incubated at room temperature for at least one hour prior to determining the fluorescence polarization (FP). The parallel and perpendicular fluorescence of each well of the plate was measured using a Tecan Genios Pro plate reader (Tecan, Switzerland) or Perkin Elmer EnVision™ plate reader (Waltham, Mass.). Fluorescence polarization (mP) was calculated from the parallel (S) and perpendicular (P) fluorescence of each sample well and the analogous values for the median control well, containing only substrate (So and Po), using the following equation: Polarization(mP)=1000*(S/So−P/Po)/(S/So+P/Po).

[1] = Lab A, read-out: Rhesus PDE2 Ki (nM) Lab A
[2] = Lab B, read-out: Rhesus PDE2 Ki (nM) Lab B

SMILES: CCCc1nc2c(c(C)nn2C(C)c2ccc(C(F)(F)F)cc2)c(=O)[nH]1 (stereo not drawn) [Example 41, 3-Methyl-6-propyl-1-{1-[4-(trifluoromethyl)phenyl]ethyl}-1,5-dihydro-4H-pyrazolo[3,4-d]pyrimidin-4-one]
Ki [1]: 64 nM

SMILES: Cc1nc2c(c(CO)nn2C(C)c2ccc(C(F)(F)F)cc2)c(=O)[nH]1 (single isomer, unassigned) [Example 27, (S)- or (R)-3-(Hydroxymethyl)-6-methyl-1-{1-[4-(trifluoromethyl)phenyl]ethyl]-1,5-dihydro-4H-pyrazolo[3,4-d]pyrimidin-4-one]
Ki [1]: 2 nM
Ki [2]: 2.1 nM

SMILES: Cc1nc2c(c(C)nn2C(C)c2ccc(C(F)(F)F)cc2)c(=O)[nH]1 (single isomer, unassigned) [Example 36]
Ki [1]: 443 nM

SMILES: Cc1nc2c(c(CO)nn2C(C)c2ccc(C(F)(F)F)c(F)c2)c(=O)[nH]1 (single isomer, unassigned) [Example 12, (R)- or (S)-1-(1-(3-Fluoro-4-(trifluoromethyl)phenyl)ethyl)-3-(hydroxymethyl)-6-methyl-1H-pyrazolo[3,4-d]pyrimidin-4(5H)-one]
Ki [1]: 278 nM
Ki [2]: 514 nM

SMILES: Cc1nc2c(c(CO)nn2Cc2ccc(C(F)(F)F)cc2)c(=O)[nH]1 [Example 8, 3-(Hydroxymethyl)-6-methyl-1-[4-(trifluoromethyl)benzyl]-1,5-dihydro-4H-pyrazolo[3,4-d]pyrimidin-4-one]
Ki [1]: 192 nM

SMILES: Cc1nc2c(c(CO)nn2C(C)c2ccc(OC(F)(F)F)cc2)c(=O)[nH]1 (stereo not drawn) [Example 4]
Ki [1]: 3.8 nM
Ki [2]: 7.1 nM

SMILES: Cc1nc2c(c(C)nn2C(C)c2ccc(C(F)(F)F)cc2)c(=O)[nH]1 (single isomer, unassigned) [Example 37]
Ki [1]: 23 nM

SMILES: Cc1nn(C(C)c2ccc(C(F)(F)F)cc2)c2nc(Cc3ccccc3O)[nH]c(=O)c12 (stereo not drawn) [Example 31, 6-(2-Hydroxybenzyl)-3-methyl-1-(1-(4-(trifluoromethyl)phenyl)ethyl)-1H-pyrazolo[3,4-d]pyrimidin-4(5H)-one]
Ki [1]: 65 nM
Ki [2]: 128 nM

SMILES: Cc1nn(C(C)c2ccc(C(F)(F)F)cc2)c2nc(-c3ccco3)[nH]c(=O)c12 (stereo not drawn) [Example 49, 6-Furan-2-yl-3-methyl-1-{1-[4-(trifluoromethyl)phenyl]ethyl}-1,5-dihydro-4H-pyrazolo[3,4-d]pyrimidin-4-one]
Ki [1]: 9 nM

SMILES: Cc1nc2c(c(CO)nn2C(C)c2ccc(C(F)(F)F)cc2)c(=O)[nH]1 (stereo not drawn) [Example 7, 3-(Hydroxymethyl)-6-methyl-1-(1-(4-(trifluoromethyl)phenyl)ethyl)-1H-pyrazolo[3,4-d]pyrimidin-4(5H)-one]
Ki [1]: 19 nM

SMILES: Cc1nc2c(c(CO)nn2C(C)c2ccc(C(F)(F)F)c(F)c2)c(=O)[nH]1 (stereo not drawn) [Example 1, 1-(1-(3-Fluoro-4-(trifluoromethyl)phenyl)ethyl)-3-(hydroxymethyl)-6-methyl-1H-pyrazolo[3,4-d]pyrimidin-4(5H)-one]
Ki [1]: 4.1 nM
Ki [2]: 7.2 nM

SMILES: Cc1ccc(C(C)n2nc(CO)c3c(=O)[nH]c(C)nc32)cc1 (stereo not drawn) [Example 2, 3-(Hydroxymethyl)-6-methyl-1-(1-p-tolylethyl)-1H-pyrazolo[3,4-d]pyrimidin-4(5H)-one]
Ki [1]: 26 nM
Ki [2]: 30 nM

Continued, values first:

Ki [1]: 29 nM
SMILES: Cc1nn(C(C)c2ccc(C(F)(F)F)cc2)c2nc(-c3cnn(C)c3)[nH]c(=O)c12 (stereo not drawn) [Example 53, 3-Methyl-6-(1-methyl-1H-pyrazol-4-yl)-1-{1-[4-(trifluoromethyl)phenyl]ethyl}-1,5-dihydro-4H-pyrazolo[3,4-d]pyrimidin-4-one]

Ki [2]: 1.5 nM
SMILES: CCC(c1ccc(C(F)(F)F)cc1)n1nc(CO)c2c(=O)[nH]c(C)nc21 (single isomer, unassigned) [Example 132, (R)- or (S)-3-(Hydroxymethyl)-6-methyl-1-(1-(4-(trifluoro-methyl)phenyl)propyl)-1H-pyrazolo[3,4-d]pyrimidin-4(5H)-one]

Ki [2]: 0.3 nM
SMILES: Cc1nc2c(c(CO)nn2[C@@H](c2ccc(C(C)(C)C)cc2)C(C)C)c(=O)[nH]1 [Example 160, (R)-1-(1-(4-tert-Butylphenyl)-2-methylpropyl)-3-(hydroxymethyl)-6-methyl-1H-pyrazolo[3,4-d]pyrimidin-4(5H)-one]

Ki [2]: 2.1 nM
SMILES: Cc1nc2c(c(CO)nn2C(c2ccc(OC(F)(F)F)cc2)C2CC2)c(=O)[nH]1 (single isomer, unassigned) [Example 95, (S)- or (R)-1-(Cyclopropyl(4-(trifluoromethoxy)phenyl)methyl)-3-(hydroxymethyl)-6-methyl-1H-pyrazolo[3,4-d]pyrimidin-4(5H)-one]

Ki [1]: ~12 nM
Ki [2]: 12 nM
SMILES: Cc1ccc(C(C)n2nc(CF)c3c(=O)[nH]c(C)nc32)cc1 (stereo not drawn) [Example 203, 3-(Fluoromethyl)-6-methyl-1-(1-p-tolylethyl)-1H-pyrazolo[3,4-d]pyrimidin-4(5H)-one]

Ki [1]: 179 nM
Ki [2]: 318 nM
SMILES: Cc1nc2c(c(CF)nn2C(C)c2ccc(C(C)(C)C)cc2)c(=O)[nH]1 (single isomer, unassigned) [Example 214, (R)- or (S)-1-(1-(4-tert-Butylphenyl)ethyl)-3-(fluoromethyl)-6-methyl-1H-pyrazolo[3,4-d]pyrimidin-4(5H)-one]

Ki [1]: 93 nM
SMILES: Cc1nc2c(c(C(O)C(F)(F)F)nn2C(C)c2ccc(C(F)(F)F)cc2)c(=O)[nH]1 (stereo not drawn) [Example 327, 6-Methyl-3-(2,2,2-trifluoro-1-hydroxyethyl)-1-{1-[4-(trifluoromethyl)phenyl]ethyl}-1,5-dihydro-4H-pyrazolo[3,4-d]pyrimidin-4-one]

Ki [2]: 1 nM
SMILES: Cc1nc2c(c(CF)nn2C(c2ccc(C(F)(F)F)cc2)C2(C)CC2)c(=O)[nH]1 (single isomer, unassigned) [Example 209]

Ki [1]: 6.7 nM
Ki [2]: 7.9 nM
SMILES: Cc1nc2c(c(C(F)F)nn2C(C)c2ccc(C(F)(F)F)cc2)c(=O)[nH]1 (stereo not drawn) [Example 166, 3-(Difluoromethyl)-6-methyl-1-{1-[4-(trifluoromethyl)phenyl]ethyl}-1,5-dihydro-4H-pyrazolo[3,4-d]pyrimidin-4-one]
